90 compounds from the Bradley open melting point set (2014) can be followed below.

“And” between values parts separate entries of the source, which are not always exact repeats. Equal entries are not always repeated.

The term melting point denotes the temperature, or range, at which the solid turns liquid. In turn, `CCOc1ccc(NC(C)=O)cc1` [4'-ethoxyacetanilide] had a melting point of 135 °C.
Then `CCN(CC)C(=S)SSC(=S)N(CC)CC` [tetraethylthiuram disulfide], with 71 °C; and `C[C@@H](O)[C@@H](C)O` [(2R,3R)-Butane-2,3-diol], with 16 °C; and `NNC(=O)c1ccncc1` [isoniazid], with 171 °C.
Then `OCc1ccccc1` [benzyl_alcohol], with -15 °C; and `O=C(O)c1cc([N+](=O)[O-])cc([N+](=O)[O-])c1` [3,5-dinitrobenzoic acid], with 206 °C.
Compound `CC(C)Nc1ccccc1` [N-isopropylaniline] gave a melting point of -32 °C.
Consider `O=[N+]([O-])c1cccc(CO)c1` [3-nitrobenzyl alcohol], for which the melting point is 31 °C.
`CCCCCCCCCC` [N-decane] showed a melting point of -30 °C.
Then `Cc1ccc(NC(=S)NN)c(C)c1` [4-(2,4-dimethylphenyl)-3-thiosemicarbazide], with 151 °C; and `Nc1nnc(C2CC2)s1` [2-amino-5-cyclopropyl-1,3,4-thiadiazole], with 214 °C; and `COc1ccc(C=CC(=O)c2ccccc2)c(OC)c1` [2,4-Dimethoxychalcone], with 70 °C.
Then `O=C(O)C(Cl)(Cl)Cl` [trichloroacetic acid], with 57.5 °C; and `CC12CCC(C(=CC=C3C(=O)C4(C)CCC3C4(C)C)C1=O)C2(C)C`, with 240 °C; and `N#Cc1ccccc1Br` [2-bromobenzonitrile], with 55 °C.
Take `C[C@H]1CC[C@@H](C)CC1` [cis-1,4-dimethylcyclohexane]: the melting point is -87 °C.
Then `O=C1CCCC1` [cyclopentanone], with -51 °C; and `Cn1nnnc1S` [5-mercapto-1-methyltetrazole], with 127 °C.
Then `CCCCc1ccc(C(=O)O)cc1` [4-butylbenzoic_acid], with 100 °C; and `CC(=O)c1ccc(O)cc1` [4-hydroxyacetophenone], with 108 °C.
`CC(C)Cc1ccc(C(C)C(=O)O)cc1` (stereo not given) [Ibuprofen] returned a melting point of 76 °C.
Then `CCCCCCCCCCCCC` [N-tridecane], with -5 °C; and `[2H]OC([2H])([2H])C([2H])(O[2H])C([2H])([2H])O[2H]` [(~2~H_5_)Propane-1,2,3-(~2~H_3_)triol], with 20 °C.
Then `O=Cc1ccc(OCC(=O)O)cc1` [4-formylphenoxyacetic acid], with 196 °C.
Then `CCCCBr` [1-bromobutane], with -112 °C; and `Cn1c(=O)c2nc[nH]c2n(C)c1=O` [Theophylline], with 274 °C.
In turn, `Cn1c(=O)c2c(ncn2CC2OCCO2)n(C)c1=O` [doxofylline] came in with a melting point of 144 °C.
Then `O=C(c1ccccc1)N(O)c1ccccc1` [N-benzoyl-N-phenylhydroxylamine], with 119 °C.
Then `C=CCN=C=S` [allyl isothiocyanate], with -80 °C.
Then `O=C(O)c1cc([N+](=O)[O-])cc([N+](=O)[O-])c1O` [3,5-dinitrosalicylic acid], with 171 °C.
`O=C1CCC(C(=O)O)=NN1` [1,4,5,6-tetrahydro-6-oxopyridazine-3-carboxylic acid]: the melting point came to 197 °C.
Then `O=C(Cl)c1cccc(C(=O)Cl)c1` [isophthaloyl dichloride], with 44 °C; and `O=C1OC(=O)c2ccccc21` [phthalic anhydride], with 132 °C; and `O=C4\C=C2/[C@]([C@H]1CC[C@@]3([C@@H](C(=O)C)CC[C@H]3[C@@H]1CC2)C)(C)CC4` [progesterone], with 131 °C and 130 °C.
Then `O=Cc1ccc(Br)cc1` [4-bromobenzaldehyde], with 57 °C; and `CC(=O)OC1CCC2(C)C(CCC3C2CCC2(C)C3CCC2(O)C#Cc2ccccc2)C1` (stereo not given) [17-hydroxy-21-phenylpregn-20-yn-3-yl acetate], with 166 °C; and `NCCCCCO` [5-amino-1-pentanol], with 36 °C.
Then `CC(=O)OCCC(C)C` [isoamyl_acetate], with -78 °C; and `C=C(CC)CC` [2-ethyl-1-butene], with -132 °C; and `N#CCC(=O)c1ccco1` [2-furoylacetonitrile], with 79 °C.
As for `C[C@H]1CCCC[C@@H]1O` (relative stereo) [trans-2-methylcyclohexanol], the melting point is -21 °C.
Regarding `Nc1c(Cl)cc(Cl)cc1Cl` [2,4,6-trichloroaniline], the melting point turned out to be 77 °C.
Regarding `COc1ccc(OC)c(S(=O)(=O)Cl)c1` [2,5-dimethoxybenzenesulfonyl chloride], the melting point was determined as 114 °C.
`c1ccc2c(c1)ccc1c3ccccc3ccc21` [Chrysene] had a melting point of 253 °C.
Then `O=S(=O)(Cl)c1ccccc1` [Benzenesulfonyl chloride], with 15 °C; and `Nc1ccccc1[N+](=O)[O-]` [o-nitroaniline], with 73 °C; and `CN(C)c1cccc2c(S(=O)(=O)Cl)cccc12` [dansyl chloride], with 72 °C.
The compound `Cc1ccc(O)c(O)c1` [4-methylcatechol] had a melting point of 68 °C.
`OB(O)c1cccc(OC(F)(F)F)c1` [3-(trifluoromethoxy)benzeneboronic acid]: the melting point was found to be 80 °C.
Turning to `CCC1(O)CCC2(C)C(CCC3C4CCC(=O)C4(C)CCC32)C1` (stereo not given) [3-ethyl-3-hydroxyandrostan-17-one], the melting point was 115 °C.
Then `COc1cc(B(O)O)cc(OC)c1OC` [3,4,5-trimethoxybenzeneboronic acid], with 245 °C; and `CC(C)(C)OC(=O)NCC(=O)O` [N-boc-glycine], with 89 °C.
Then `CC(=O)c1ccccc1[N+](=O)[O-]` [2'-nitroacetophenone], with 27 °C.
Then `CCC1(CC)C(=O)NC(=O)NC1=O` [barbital], with 190 °C; and `Oc1ccccc1Cl` [o-chlorophenol], with 8 °C; and `Cc1cc(Cl)cc([N+](=O)[O-])c1N` [4-chloro-2-methyl-6-nitroaniline], with 122 °C.
With `CCOC(=O)Cn1cnc2ncnc(Cl)c21` [Ethyl (6-chloro-7H-purin-7-yl)acetate], the melting point came out at 108 °C.
Then `O=[N+]([O-])O[C@H]1CO[C@H]2[C@@H]1OC[C@H]2O[N+](=O)[O-]` [isosorbide dinitrate], with 70 °C; and `O=C1C=C(O)C(=O)c2ccccc21` [2-Hydroxy-1,4-naphthoquinone], with 192 °C; and `COc1ccc2c(c1)CC1(CCC(O)(c3ccc(C(C)(C)C)cc3)CC1)C2O` (stereo not given), with 104 °C.
Then `CCCC(N)=O` [butyramide], with 115 °C.
Then `COc1cc(C=O)cc(OC)c1` [3,5-dimethoxybenzaldehyde], with 46.3 °C; and `COC(CC(C)=O)OC` [acetylacetaldehyde dimethyl acetal], with -83 °C; and `BBBBBBBBBB` [decaborane], with 101 °C.
In turn, `O=[N+]([O-])c1cc(F)ccc1O` [4-fluoro-2-nitrophenol] had a melting point of 75 °C.
Then `c1ccc(P(C2CCCCC2)C2CCCCC2)cc1` [dicyclohexylphenylphosphine], with 60 °C.
Then `CC(=O)Nc1ccccc1C` [2'-methylacetanilide], with 111 °C; and `CC(=O)Cl` [Acetyl chloride], with -112 °C.
Then `COc1ccc(N)c(C)c1` [4-Methoxy-2-methylaniline], with 13.5 °C; and `CCCCCCCCC(=O)OCC` [ethyl nonanoate], with -44 °C.
Consider `O=[N+]([O-])c1ccc(O)cc1` [4-nitrophenol], for which the melting point is 112 °C and 113 °C.
Then `c1ccc2c(c1)Cc1ccccc1-2` [fluorene], with 116 °C.
Then `Nc1cccc2ccc(O)cc12` [8-amino-2-naphthol], with 208 °C; and `N#CN` [cyanamide], with 45 °C.
In turn, `NC(=O)c1ccc(Cl)cc1Cl` [2,4-dichlorobenzamide] gave a melting point of 192 °C.
Then `CC(C)(C)OC(=O)N1CCS[C@@H]1C(=O)O` [(R)-3-boc-thiazolidine-2-carboxylic acid], with 92 °C; and `OB(O)c1c(F)c(F)cc(F)c1F` [2,3,5,6-tetrafluorobenzeneboronic acid], with 143 °C.
Then `CCCCCCCCCCCCCC` [tetradecane], with 6 °C; and `COc1cc(Cl)c(Cl)c(Cl)c1Cl` [1-Methoxy-2,3,4,5-tetrachlorobenzene], with 88 °C.
Then `OC1CCCCCCC1` [cyclooctanol], with 15 °C; and `Clc1c(Cl)c(Cl)c(Cl)c(Cl)c1Cl` [Hexachlorobenzene], with 230 °C; and `CCCCc1c2c(cc3c1-c1ccccc1OC3)CCCC2=O` [12-Butyl-9,10-dihydro-6H-naphtho[2,3-c]chromen-11(8H)-one], with 91 °C.
`O=C(O)COc1cccnc1` [3-pyridyloxyacetic acid]: the melting point stood at 211 °C.
Then `O=C(Cl)c1c(Cl)cccc1Cl` [2,6-dichlorobenzoyl chloride], with 17 °C.
Then `Clc1nc[nH]c1Cl` [4,5-dichloroimidazole], with 181 °C; and `O=C(/C=C/OC(=O)c1ccccc1)CCc1ccccc1` [(1E)-3-oxo-5-phenylpent-1-en-1-yl benzoate], with 100 °C.
Then `CCOC(=O)C(NC=O)C(=O)OCC` [diethyl formamidomalonate], with 53 °C.
The compound `CCCCCCCCC(C)=O` [2-decanone] displayed a melting point of 3 °C.
Then `O=C(Nc1ccccc1/C=C/c1ccccc1)c1ccccc1` [N-{2-[(E)-2-phenylethenyl]phenyl}benzamide], with 98 °C.
`COc1cccc(C#N)c1OC` [2,3-dimethoxybenzonitrile] showed a melting point of 46 °C.
